Test results as given in patent publication US5457106A, “Pyridine derivatives, their production and use” (Takeda Chemical Industries, Ltd., priority 1991, dated 1995).
Where two headings read alike, the source gives them in different places.

Tests used:
cyclooxygenase = molecular target: T1, cyclooxygenase (Rattus norvegicus, UniProt Q63921); experiment: Cyclooxygenase inhibitory activity (HHT formation from arachidonic acid in rat platelet-rich plasma); assay type: cell-based, rat (Jcl:wistar)
T1 construct: from tissue; host or cells: platelets in platelet-rich plasma from rat abdominal aorta blood (Jcl:wistar, male)
T1 sequence (Q63921 27-602): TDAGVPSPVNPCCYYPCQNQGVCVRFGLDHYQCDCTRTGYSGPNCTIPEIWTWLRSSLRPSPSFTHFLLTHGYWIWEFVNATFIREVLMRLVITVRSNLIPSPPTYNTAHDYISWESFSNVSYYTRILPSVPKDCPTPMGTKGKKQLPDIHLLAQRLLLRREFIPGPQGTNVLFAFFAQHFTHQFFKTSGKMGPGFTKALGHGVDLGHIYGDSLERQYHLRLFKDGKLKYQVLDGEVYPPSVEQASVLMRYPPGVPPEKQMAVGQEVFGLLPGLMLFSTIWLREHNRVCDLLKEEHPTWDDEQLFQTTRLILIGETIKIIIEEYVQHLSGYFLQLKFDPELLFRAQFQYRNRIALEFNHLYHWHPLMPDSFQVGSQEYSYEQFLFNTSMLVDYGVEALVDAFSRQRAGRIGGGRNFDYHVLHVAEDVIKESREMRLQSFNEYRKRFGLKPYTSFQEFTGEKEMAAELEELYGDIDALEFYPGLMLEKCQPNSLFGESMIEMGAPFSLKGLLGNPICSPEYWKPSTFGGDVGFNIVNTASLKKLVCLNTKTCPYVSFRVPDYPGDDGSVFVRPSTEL

[1] = test system: ART (antigen-responding T-cell); experiment: In vitro ART (antigen-responding T-cell) proliferation test; assay type: cell-based, Lewis rat; conditions: Rattus norvegicus, T-cell, read-out: % Inhibition of ART growth
[2] = test system: Mouse phenylquinone writhing; experiment: Mouse phenylquinone writhing inhibitory activity; assay type: in vivo, mouse (Slc: ICR); conditions: Mus musculus, po, 20 min, 50 mg/kg, orally; read-out: Inhibitory percentage (phenylquinone writhing)
In short: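 Male ICR mice (4 weeks, 17–24 g) dosed orally with compound suspended in 5% gum arabic. After 30 min, 0.02% phenylquinone (0.1 ml/10 g) given i.p.; writhing and stretching responses counted over 20 min.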

[3] = test system: brewer's yeast induced pyrexia; experiment: Antipyretic activity (brewer's yeast induced pyrexia); assay type: in vivo, rat (DS line); conditions: orally; for Antipyretic activity, .increment. °C.: at peak time
In short: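 Male DS rats (7 weeks, 200-240 g) made febrile by s.c. 15% brewer's yeast 18 h before dosing; only animals at ≥38.5° C used. Compound given orally versus solvent control, with rectal temperature taken by thermistor hourly for 5 h post-dose.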

Rat adjuvant arthritis = experiment: Activity to rat adjuvant arthritis; assay type: in vivo, rat (SD or Lewis); conditions: 50 mg/kg, day 0 to day 13
ICAM-1 = experiment: Adhesion protein expression inhibitory activity, ICAM-1; assay type: cell-based; conditions: human umbilical vascular endothelial cells, TNF-α, 360 min
Experimental: (§1) Adhesion Protein Expression Inhibitory Activity The various concentrations of test compounds were added to the human umbilical cord-derived vascular endothelial cells [sold by Klabo] which were seeded in the gelatin coat plate and the mixture was incubated at 37° C. for 15 minutes. Then, the human tumor necrosis factor-α[TNF-α; sold by Genzyme] was added therein to the final concentration of 1 ng/ml and incubation was carried out at 37° C. for 3 hours for expression of ELAM-1 and for 6 hours for that of ICAM-I. After the reaction, the cells were fixed using glutaraldhyde and the expression amount of ELAM-1 and ICAM-1 was measured by the cell-ELISA method. That is, the expression was determined by […] the adhesion proteins on the cells in the system using anti-ELAM-1 antibody BBA-2 and anti-ICAM-1 antibody BBA4 as the first antibody as well as horseradish peroxidase-labeled rabbit anti-mouse IgG antibody as the second antibody.

[4] = test system: acute renal failure induced by renal ischemia followed by reperfusion in rats; experiment: Effect on acute renal failure induced by renal ischemia-reperfusion; assay type: in vivo, rat (Sprague-Dawley); conditions: 50 mg/kg, orally, 20 hours of reperfusion
Experimental: Effect On Acute Renal Failure Induced By Renal Ischemia-Reperfusion Male Sprague-Dawley rats (6 to 7 weeks old) were anesthetized using pentobarbital sodium (50 mg/kg, i.p.) and bilateral renal arteries were completely occluded for 45 minutes followed by reperfusion. After 20 hours of the reperfusion, the blood was collected from the abdominal aorta under anesthesia and the blood urea nitrogen (BUN) was determined.

[5] = test system: Rat carrageenin pedal edema; experiment: Rat carrageenin pedal edema inhibitory activity; assay type: in vivo, rat (Jcl: SD); conditions: Rattus norvegicus, po, 3 h, 50 mg/kg, orally, 3 hours after carrageenin; read-out: Inhibitory percentage (carrageenin pedal edema)
In short: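 Male Jcl:SD rats (6 weeks, 160-220 g) received test compound orally as a 5% gum arabic suspension, topped up with water to 5 ml/rat. One hour later 0.05 ml of 1% carrageenin was injected subcutaneously into the right hind foot pad. Edema volume was the foot volume increase 3 hours post-injection.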

[6] = test system: PAF induced respiratory tract constriction; experiment: PAF induced respiratory tract constriction inhibitory activity; assay type: in vivo, guinea pig (Hartley); conditions: intravenously
From the text: PAF Induced Respiratory Tract Constriction Inhibitory Activity Male and female Hartley guinea pigs, weighing about 100 g, were used. The guinea pigs were fixed at a dorsal position under urethane anethesia (1.5 g/kg, i.p.). One leg of a cannula (having four legs) was inserted in the trachea and two of the other three legs were bound to the respirator (Harvard apparatus rodent respirator). The remaining one leg (side branch) was bound to the bronchospasm transducer 7.020 (Ugobasile). Under the conditions of 5 to 7 ml of air supply/time, 70 times/min. of supply time and 10 cm H2 O of pulmonary pressure load, the amount of over flow air was recorded on a Rectigraph (Rectigraph-8S, Saneissoki) via the transducer. After Gallamine […] treatment (1 mg/kg, i.v.), PAF was administered intravenously (1.0 μg/kg) and the maximum respiratory tract constriction response was observed after 30 seconds. Under these conditions, the inhibitory activity of the test compounds were examined.

[7] = test system: Mouse acetic acid writhing; experiment: Mouse acetic acid writhing inhibitory activity; assay type: in vivo, mouse (Slc: ICR); conditions: Mus musculus, po, 20 min, orally, read-out: Inhibitory percentage (acetic acid writhing)
Experimental: Mouse Acetic Acid Writhing Inhibitory Activity
Ten male Slc: ICR mice, 4 weeks old, per 1 group were used. A test compound was administered orally, and after 30 minutes, 0.1 ml/10 g body weight of physiological saline containing 0.6% acetic acid was injected intraperitoneally. For 20 minutes, writhing (in agony condition) response by administration of acetic acid was counted regarding individual animals. The inhibitory percentage relative to the mean response counts of a control group was calculated regarding respective animals in a test compound administration group. The test compound was suspended in 5% gum arabic solution, and the administration volume was 0.2 ml/10 g.

ELAM-1 = experiment: Adhesion protein expression inhibitory activity, ELAM-1; assay type: cell-based; conditions: 13 μM, human umbilical vascular endothelial cells, TNF-α; 180 min
Experimental: as §1

5-Lipoxygenase = molecular target: T2, 5-Lipoxygenase (Rattus norvegicus, UniProt P12527); experiment: 5-Lipoxygenase inhibitory activity in rat basophilic leukemia cells; assay type: cell-based
T2 construct: rat basophilic leukemia cell suspension; endogenous in cells
T2 sequence (P12527 1-673): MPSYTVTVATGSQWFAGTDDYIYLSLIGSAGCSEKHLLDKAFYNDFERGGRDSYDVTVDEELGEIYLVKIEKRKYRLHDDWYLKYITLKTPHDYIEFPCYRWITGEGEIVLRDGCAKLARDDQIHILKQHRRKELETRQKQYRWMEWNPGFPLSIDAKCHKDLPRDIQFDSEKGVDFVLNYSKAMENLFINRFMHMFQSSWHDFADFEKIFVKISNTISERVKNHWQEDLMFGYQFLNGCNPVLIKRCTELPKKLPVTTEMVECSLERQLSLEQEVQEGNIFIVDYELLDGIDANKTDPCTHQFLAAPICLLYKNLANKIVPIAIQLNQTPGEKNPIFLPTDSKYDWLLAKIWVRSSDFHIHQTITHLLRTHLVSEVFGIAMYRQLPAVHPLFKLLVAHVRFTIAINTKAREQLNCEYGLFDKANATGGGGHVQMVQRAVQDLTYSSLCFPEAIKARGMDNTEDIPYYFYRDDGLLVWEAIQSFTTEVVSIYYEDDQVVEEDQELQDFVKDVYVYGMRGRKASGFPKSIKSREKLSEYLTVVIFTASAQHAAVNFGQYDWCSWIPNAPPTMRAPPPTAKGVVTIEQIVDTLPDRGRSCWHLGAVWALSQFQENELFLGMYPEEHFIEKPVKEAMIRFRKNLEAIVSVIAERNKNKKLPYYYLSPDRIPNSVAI
Experimental: 5-Lipoxygenase Inhibitory Activity […] Then, 0.1 ml of mast cell medium containing 50 μg of arachidonic acid and 1 μg of calcium ionophore (A-23187) were added and the mixture was allowed to stand at 37° C. for 15 minutes. Ethanol (1 ml) was added thereto and the mixture was shaken well, and filtered (Membrane filter, 0.45 μm). […] As a control, the measurement was carried out according to the same manner except that 0.01 ml of the solvent used for dissolving the test compound was used in place of the test compound. The inhibitory percentage (%) was calculated from the following equation to obtain IC50.

Row | SMILES | inhibition at 1 µM [1] [%] | inhibition at 10 µM [1] [%] | Expression Inhibitory Potency, ICAM-1 (ICAM-1; 30 μM) [%] | Blood urea nitrogen [4] [mg/dL] | Inhibitory activity (PAF induced respiratory tract constriction) ([6]; 3 mg/kg) [%] | Expression Inhibitory Potency, ELAM-1 (ELAM-1) [%] | Expression Inhibitory Potency, ICAM-1 (ICAM-1; 13 μM) [%] | also measured
1 | Cl.O=C(N(CCCSc1ccncc1)Cc1ccccc1)C(F)(F)F [Example 73, 4-[3-(N-benzyl-N-trifluoroacetylamino)propylthio]pyridine hydrochloride] | 23 | 82 | 42 | 68 ± 3 |  |  |  | IC50 (cyclooxygenase): 2800 nM; inhibition in vivo at 50 mg/kg [2]: 75%; Antipyretic activity, peak time ([3]; 50 mg/kg): 2 h; Antipyretic activity, .increment. °C. ([3]; 50 mg/kg): -0.65 °C; Swelling inhibitory percentage (Rat adjuvant arthritis): 52%
2 | O=c1c2ccccc2oc(=S)n1CCCSc1ccncc1 [Example 141, 3-[3-(4-pyridylthio)propyl]-2H-1,3-benzoxadine-2-thion-4(3H)-one] | -21 | 64 | 54 |  | 51.7 |  |  | inhibition in vivo at 50 mg/kg [5]: 36%; Antipyretic activity, peak time ([3]; 12.5 mg/kg): 3 h; Antipyretic activity, .increment. °C. ([3]; 12.5 mg/kg): -1.60 °C; Antipyretic activity, peak time ([3]; 50 mg/kg): 3 h; Antipyretic activity, .increment. °C. ([3]; 50 mg/kg): -2.40 °C; Expression Inhibitory Potency, ICAM-1 (ICAM-1; 3 μM): 21%
3 | O=c1c2ccccc2n(CCCCSc2ccncc2)c(=O)n1CCCCSc1ccncc1 [Example 147, 1,3-bis[4-(4-pyridylthio)butyl]quinazolin-2,4(1H,3H)-dione] | 9 | 72 |  |  | 50.7 | 96 | 83 | IC50 (cyclooxygenase): 1800 nM; inhibition in vivo at 50 mg/kg [7]: 46%
4 | O=C1SC(=Cc2ccccc2)C(=O)N1CCCCSc1ccncc1 [Example 150, 4-[4-(5-benzylidene-2,4-thiazolidinedione)butylthio]pyridine] | -31 | 75 | 94 | 76.8 ± 16.9 |  |  |  | IC50 (5-Lipoxygenase; 5-HETE, read-out: 5-Lipoxygenase inhibitory activity, 5-HETE IC50): 2600 nM; IC50 (5-Lipoxygenase; LTB4, read-out: 5-Lipoxygenase inhibitory activity, LTB4 IC50): 2500 nM; inhibition in vivo at 50 mg/kg [7]: 54%
5 | O=C1SC(=Cc2cccs2)C(=O)N1CCCCSc1ccncc1 [Example 157, 4-[4-[5-(2-thienylmethylene)-2,4-thiazolidinedione]butylthio]pyridine] | -50 | 62 | 78 | 62.4 ± 7.0 |  |  |  | 
6 | O=c1c2ccccc2oc(=S)n1CCCCSc1ccncc1 [Example 162, 3-[4-(4-pyridylthio)butyl]-2H-1,3-benzoxadine-2-thion-4(3H)-on] | -31 | -54 |  |  | 39.8 |  |  | inhibition in vivo at 50 mg/kg [5]: 34%
7 | CCCC=C1SC(=O)N(CCCCSc2ccncc2)C1=O [Example 171, 4-[4-(5-propylmethylene-2,4-thiazolidinedione)butylthio]pyridine] | 96 | 41 |  | 64 ± 11 |  | 94 | 75 | 
8 | Cl.Cl.O=c1c2ccccc2n(CCCCSc2ccncc2)c(=S)n1CCCCSc1ccncc1 [Example 200, 1,3-bis[4-(4-pyridylthio)butyl]quinazoline-2(1H)-thion-4(3H)-one dihydrochloride] |  |  |  |  |  | 71 | 83 | Inhibitory activity (PAF induced respiratory tract constriction) ([6]; 10 mg/kg): 61.4%
